In publication PMC9271885 (eBioMedicine, 2022):
Where two headings read alike, the source gives them in different places.

Experiments:
SARS-CoV-2 [1] = assay: microbe, parasite or virus in culture; type: cell-based; settings: Severe acute respiratory syndrome coronavirus 2, 48 h; Caco-2 cells, viral RNA, 2 days incubation
in vitro = assay: in vitro
Protocol: One day prior to infection, 96-well culture plates were seeded with 5×10^4 Vero E6 or Caco-2 cells in 100µL assay medium per well (containing 2.5% FCS). […] After 15min, a preset amount of virus diluted in 25µL of assay medium was added to the wells. This quantity of virus was calibrated so that the viral replication was still in the exponential growth phase for the readout, as previously described, [28], [29] which correspond here to 150 TCID50 per well. Four “cell control” wells were supplemented with 50µL of assay medium without any compounds or virus. On each culture plate, a positive control compound (Remdesivir, BLDpharm) was added in duplicate with eight 2-fold serial dilutions (0.16µM to 20µM). Plates were incubated for 2 days at 37°C prior to quantification of the viral genome by real-time RT-PCR as described below. For the determination of the 50% cytotoxic concentrations (CC50; compound concentration required to reduce by 50% cell viability), the same culture conditions were used, without addition of the virus, and cell viability was measured using CellTiter Blue® (Promega) following manufacturer's instructions. EC50, EC90 and CC50 were determined using logarithmic interpolation as previously described.[28] The selectivity index of the compounds was calculated as the ratio of the CC50 over the EC50.

SARS-CoV-2 [2] = type: cell-based; settings: bronchial human airway epithelium
SARS-CoV-2 [3] = assay: microbe, parasite or virus in culture; type: cell-based
[4] = Population pharmacokinetic modelling and simulation of TIZ in hamster (LC-MS/MS, NONMEM); settings: in vivo
Protocol: At each time point, approximate 80µl of blood were collected from the submandibular vein or the saphenous vein of hamsters. All samples were transferred into commercial K2-EDTA tubes, placed on ice until processed for plasma extraction by centrifugation and stored at −70°C before analysis. A LC-MS/MS-AI Triple Quad 5500 was used to determine TIZ concentrations. The mobile phase was a gradient of 0.1% formic acid (FA) in water and 0.1% of FA in acetonitrile (ACN), the column was an ACQUITY UPLC HSS T3 1.8 μm 2.1 × 50mm. For mass spectrometry a positive electrospray ionization was used, and a selected reaction monitoring was set to select TIZ: [M+H]+m/z: 266.0 / 121.2 and dexamethasone: [M+H]+m/z: 393.0 / 373.1 as internal standard.
Pharmacokinetic profiles of TIZ in hamster were analyzed using a nonlinear mixed-effects modelling approach. The population pharmacokinetics analysis was performed using NONMEM® version 7.4. The final pharmacokinetic model was established by evaluating one-, two-, and three-compartment disposition models, as well as several different absorption models (i.e. first-order absorption, first-order absorption with lag time, and transit absorption models). The inter-individual variabilities of pharmacokinetic parameters were implemented as a log-normal distribution and the residual unexplained variability was modelled as an exponential error.

[5] = Severe acute respiratory syndrome coronavirus 2, Vero C1008, 48 h, Vero E6 cells, viral RNA, 2 days incubation
[6] = Severe acute respiratory syndrome coronavirus 2, Vero C1008, 48 h, Vero E6 cells, viral RNA, 2 days incubation, read-out: EC50

| Compound | EC90 (SARS-CoV-2 [1]) [µM] | CC50 at 2 days (in vitro; African green monkey, CC50, Vero E6 cells, no virus) [µM] | CC50 at 2 days (in vitro; human) [µM] | effective NTZ concentrations ex vivo (SARS-CoV-2 [2]) [µM] | effective NTZ concentrations ex vivo (SARS-CoV-2 [2]; conversion of 5µM) [µg/mL] | EC90 (SARS-CoV-2 [3]; [5]) [µM] | EC50 (SARS-CoV-2 [3]; [6]) [µM] | EC50 (SARS-CoV-2 [3]; Vero E6 cells, viral RNA, 2 days incubation, read-out: EC50) [µM] | V/F volume of distribution of the central compartment, population estimate (%RSE) [4] | CL/F oral clearance, population estimate (%RSE) ([4]; po) | CC50 at 2 days (in vitro; African green monkey, CC50) [µM] | EC50 (SARS-CoV-2 [3]; Severe acute respiratory syndrome coronavirus 2, Vero C1008, read-out: EC50 expressed in µg/mL) [µg/mL] | Selectivity Index (SI=CC50/EC50) (SARS-CoV-2 [3]; Vero E6 cells) | Tmax ([4]; Syrian, po) [min] | half-life ([4]; Syrian, po) [min] |
| --- | --- | --- | --- | --- | --- | --- | --- | --- | --- | --- | --- | --- | --- | --- | --- |
| CC(=O)Oc1ccccc1C(=O)Nc1ncc([N+](=O)[O-])s1 [NTZ, Nitazoxanide] | 1.75 | > 60 | 9.15 | 5 | 1.54 | 10.3 | 3.19 | < 5 | 0.128 (48.3) L | 0.651 (11.9) L/h | – | – | – | – | – |
| O=C(Nc1ncc([N+](=O)[O-])s1)c1ccccc1O [TIZ, tizoxanide] | – | – | – | – | – | 9.27 | 7.48 | – | – | – | > 60 | 1.98 | higher than 13.3 | 16.6 | 48 |
